Results on 15 compounds are retold here after patent US20210261569A1, “FUSED HETEROCYCLIC DERIVATIVES HAVING SELECTIVE BACE1 INHIBITORY ACTIVITY” (Shionogi & Co., Ltd., priority 2018, published 2021).

For test [1], the target named is T1, recombinant BACE1 protein (Homo sapiens, UniProt P56817).
T1 construct: recombinant BACE1 protein in a final concentration of 0.04 μg/mL
In words: BACE1 biochemical FRET based assay. To be noted: for Selectivity: BACE2 IC50 relative to BACE1 IC50; for IC50: FRET, pH 5.0, 450 min at room temperature. The source says:
(§1) This assay is a Fluorescence Resonance Energy Transfer Assay (FRET) based assay. The substrate for this assay is an APP derived 13 amino acids peptide that contains the ‘Swedish’ Lys-Met/Asn-Leu mutation of the amyloid precursor protein (APP) beta-site secretase cleavage site. This substrate also contains two fluorophores: (7-methoxycoumarin-4-yl) acetic acid (Mca) is a fluorescent donor with excitation wavelength at 320 nm and emission at 405 nm and 2,4-dinitrophenol (Dnp) is a proprietary quencher acceptor. […] Upon cleavage by BACE1, the fluorophore Mca is separated from the quenching group Dnp, restoring the full fluorescence yield of the donor. The increase in fluorescence is linearly related to the rate of proteolysis.
Briefly in a 384-well format recombinant BACE1 protein in a final concentration of 0.04 μg/mL was incubated for 450 minutes at room temperature with 10 μm substrate in incubation buffer (final concentrations: 33.3 mM Citrate buffer pH 5.0, 0.033% PEG, 3% DMSO) in the absence or presence of compound. Next the amount of proteolysis was directly measured by fluorescence measurement at T=0′-120′ and T=450′ (excitation at 320 nm and emission at 405 nm). Results were expressed in RFU (Relative Fluorescence Units), as difference between T450 and Tx (Tx is chosen depending on the reaction speed between 0 and 120 minutes).
(§2) A best-fit curve was fitted by a minimum sum of squares method to the plot of % Controlmin versus compound concentration. From this an IC50 value (inhibitory concentration causing 50% inhibition of activity) can be obtained.

Test [2] addresses T2, recombinant BACE2 protein (Homo sapiens, UniProt Q9Y5Z0).
T2 construct: recombinant BACE2 protein in a final concentration of 0.4 μg/mL
T2 sequence (Q9Y5Z0 63-518): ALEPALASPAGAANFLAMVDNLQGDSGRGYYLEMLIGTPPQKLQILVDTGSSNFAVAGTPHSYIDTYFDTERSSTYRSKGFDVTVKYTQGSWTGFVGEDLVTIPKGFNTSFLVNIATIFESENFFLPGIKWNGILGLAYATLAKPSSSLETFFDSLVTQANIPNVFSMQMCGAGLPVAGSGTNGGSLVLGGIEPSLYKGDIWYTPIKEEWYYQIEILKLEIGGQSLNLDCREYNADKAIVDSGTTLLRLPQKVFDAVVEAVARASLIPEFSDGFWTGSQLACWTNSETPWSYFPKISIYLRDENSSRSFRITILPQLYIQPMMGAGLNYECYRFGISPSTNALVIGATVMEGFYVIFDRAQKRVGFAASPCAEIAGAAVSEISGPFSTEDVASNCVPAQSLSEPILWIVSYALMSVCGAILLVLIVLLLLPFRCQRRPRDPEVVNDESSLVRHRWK
The experiment in a line: BACE2 biochemical FRET based assay. Particulars: pH 5.0, 450 min at room temperature.
Source text: as §1, with “assay” for “assay is an APP derived 13 amino acids peptide that”, “beta-secretase” for “beta-site secretase”, “the beta-secretase,” for “BACE1,”
Briefly in a 384-well format recombinant BACE2 protein in a final concentration of 0.4 μg/mL was incubated for 450 minutes at room temperature with 10 μM substrate in incubation buffer (final concentrations: 33.3 mM Citrate buffer pH 5.0, 0.033% PEG, 2% DMSO) in the absence or presence of compound. Next the amount of proteolysis was directly measured by fluorescence measurement at T=0 and T=450 (excitation at 320 nm and emission at 405 nm). Results were expressed in RFU (Relative Fluorescence Units), as difference between T450 and T0.
as §2

T1 sequence (P56817 46-501): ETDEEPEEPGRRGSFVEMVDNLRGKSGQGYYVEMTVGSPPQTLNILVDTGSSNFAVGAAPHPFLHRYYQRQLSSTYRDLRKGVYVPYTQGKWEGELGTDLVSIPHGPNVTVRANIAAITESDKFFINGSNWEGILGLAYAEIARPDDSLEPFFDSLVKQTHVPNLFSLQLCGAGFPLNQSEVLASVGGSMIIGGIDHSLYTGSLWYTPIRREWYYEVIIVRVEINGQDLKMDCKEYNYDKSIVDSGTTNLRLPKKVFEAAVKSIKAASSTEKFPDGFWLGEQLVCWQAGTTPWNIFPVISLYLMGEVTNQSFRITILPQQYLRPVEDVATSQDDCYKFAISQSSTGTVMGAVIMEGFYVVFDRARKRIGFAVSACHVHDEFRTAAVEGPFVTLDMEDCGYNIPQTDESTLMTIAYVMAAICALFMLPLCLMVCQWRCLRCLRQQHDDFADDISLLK

For orientation: IC50 means the concentration needed to halve the response being measured. For `Cn1cc([C@@H]2OC[C@H]3OC(N)=N[C@](C)(c4cc(NC(=O)c5cnc(OCF)cn5)ccc4F)[C@H]32)cn1` [Compound I-014], the Selectivity in test [1] stood at 223. Moreover, the figures for the half-inhibitory concentration (IC50) in test [1] and in test [2] were 44.7 nM and 10000 nM, respectively.

Take `C[C@]1(c2cc(NC(=O)c3ccc(C#N)cn3)ccc2F)N=C(N)O[C@@H]2CO[C@@H](C(F)(F)F)[C@@H]21` [Compound I-016]: in test [1], the Selectivity is on record as 62.3 and the half-inhibitory concentration (IC50) worked out at 5.7 nM. For the same compound, in test [2], the IC50 stood at 355 nM.

With `C[C@]1(c2cc(NC(=O)c3ccc(C#N)cn3)ccc2F)N=C(N)O[C@@H]2CO[C@@H](CC(F)F)[C@@H]21` [Compound I-018], in test [1], the Selectivity is listed as 38.1. The values for the IC50 in test [1] and in test [2] were 1.2 nM and 45.7 nM, respectively.

For the compound `C[C@]1(c2cc(NC(=O)c3cnc(OCF)cn3)ccc2F)N=C(N)O[C@@H]2CO[C@@H](CC(F)F)[C@@H]21` [Compound I-019], in test [1], the Selectivity is given as 60.2 and the IC50 came to 4.07 nM. Moreover, the IC50 in test [2] came to 245 nM.

In the case of `C[C@]1(c2cc(NC(=O)c3ccc(C#N)cn3)ccc2F)N=C(N)O[C@@H]2CO[C@@H](CCF)[C@@H]21` [Compound I-020], in test [1], the Selectivity was determined as 21.4 and the IC50 came out at 2.19 nM. Further, the concentration for half-maximal inhibition (IC50) in test [2] was found to be 46.8 nM.

Turning to `C[C@]1(c2cc(NC(=O)c3cnc(OCF)cn3)ccc2F)N=C(N)O[C@@H]2CO[C@@H](CCF)[C@@H]21` [Compound I-021], in test [1], the Selectivity was found to be 37.1 and the IC50 amounted to 8.51 nM. Also, the half-maximal inhibitory concentration (IC50) in test [2] was found to be 316 nM.

For the compound `C[C@]1(c2cc(NC(=O)c3cnc(OCF)cn3)ccc2F)N=C(N)O[C@@H]2CO[C@@H](C(F)F)[C@@H]21` [Compound I-022], in test [1], the Selectivity is on record as 27.5 and the IC50 is 24 nM. Further, in test [2], the IC50 is 661 nM.

For `CC[C@@H]1OC[C@H]2OC(N)=N[C@](C)(c3cc(NC(=O)c4cnc(OCF)cn4)ccc3F)[C@@H]12` [Compound I-023], in test [1], the Selectivity worked out at 51.2 and the IC50 was 4.79 nM. For the same compound, in test [2], the concentration for half-maximal inhibition (IC50) is 245 nM.

Take `CC(C)CCC[C@@H]1OC[C@H]2OC(N)=N[C@](C)(c3cc(NC(=O)c4cnc(OCF)cn4)ccc3F)[C@@H]12` [Compound I-025]: in test [1], the Selectivity came out at 9.3 and the IC50 was found to be 1.26 nM. The IC50 in test [2] came out at 11.7 nM.

On to `CC(C)C[C@@H]1OC[C@H]2OC(N)=N[C@](C)(c3cc(NC(=O)c4cnc(OCF)cn4)ccc3F)[C@@H]12` [Compound I-028], for which, in test [1], the Selectivity amounted to 87.1 and the IC50 was determined as 6.76 nM. In addition, in test [2], the half-maximal inhibitory concentration (IC50) turned out to be 589 nM.

Consider `CC(C)C[C@@H]1OC[C@H]2OC(N)=N[C@](C)(c3cc(NC(=O)c4cnc(OC[C@@H](C)F)cn4)ccc3F)[C@@H]12` [Compound I-029], for which, in test [1], the Selectivity was 191 and the IC50 stood at 22.9 nM. The IC50 in test [2] came to 4370 nM.

In the case of `C[C@@H](F)COc1cnc(C(=O)Nc2ccc(F)c([C@@]3(C)N=C(N)O[C@@H]4CO[C@@H](C(F)(F)F)[C@@H]43)c2)cn1` [Compound I-030], in test [1], the Selectivity was 151 and the IC50 worked out at 66.1 nM. For the same compound, in test [2], the IC50 came to 10000 nM.

Consider `Cc1noc(C)c1[C@@H]1OC[C@H]2OC(N)=N[C@](C)(c3cc(NC(=O)c4cnc(OCF)cn4)ccc3F)[C@H]21` [Compound I-031], for which the Selectivity in test [1] came out at 282. Also, the 50% inhibitory concentration (IC50) in test [1] is 12 nM; in test [2] it was 3390 nM.

On to `C[C@H]1OC[C@H]2[C@@H]1OC(N)=N[C@]2(CF)c1cc(NC(=O)c2cnc(-n3cncn3)cn2)ccc1F` [Compound I-051], for which, in test [1], the Selectivity stood at 63.1 and the 50% inhibitory concentration (IC50) came out at 5.01 nM. Moreover, the IC50 in test [2] was 316 nM.

Take `NC1=N[C@](CF)(c2cc(NC(=O)c3cnc(OCF)cn3)ccc2F)[C@@H]2COCC[C@H]2O1` [II-017]: the Selectivity in test [1] is on record as 23.4. The 50% inhibitory concentration (IC50) in test [1] was found to be 7.6 nM; in test [2], 178 nM.
